Experimental data from patent US20200046617A1, “Composition For Combating The Signs Of Ageing Of The Skin And Hair And Nails” (TOMCAT INTERNATIONAL LIMITED, priority 2017, published 2020).

Columns and labels:
Assay type in all cases: cell-based
human fibroblasts [1] = assay: Mitochondrial mass of FK866-treated human fibroblasts (Nonyl Acridine Orange probe, flow cytometry); settings: for Effect of treatment against FK866 on mitochondrial mass (in words): fibroblasts treated with FK866; for Mitochondrial mass Increase (%): vs FK866 2.5 nM non treated
Description: Human fibroblasts were cultured at 37° C. in wet atmosphere with 5% CO2, on MEM supplemented with glucose, serum and glutamine. The cells are treated with a chemical agent (FK866) in the presence or absence of the following compounds: Trans-resveratrol and Betaine. Agent FK866 reduces the cell mitochondrial mass, thereby mimicking one of the signs of ageing.
Under these conditions, the ability of the active ingredient to increase the mitochondrial mass is assessed.
After 24 h treatment, the mitochondrial mass is therefore measured using the Nonyl Acridine Orange (NAO, Invitrogen) probe which fluoresces at 533 nm. The cell viability can be measured by DAPI staining. A flow cytometry analysis is conducted with a FACS LSRII and the results analysed by FlowJo software.

human fibroblasts [2] = assay: Intracellular ATP production by cultivated human fibroblasts (chemiluminescence-based assay); settings: resveratrol 1 μM, betaine 1 mM or mixture; for ATP (μM per cell) Mean value: 120 min incubation, mean of 4 measurements; for ATP Increase (%): with respect to ATP level in untreated cells, 120 min
Description: Human fibroblasts were cultured at 37° C. in wet atmosphere with 5% CO2, on MEM supplemented with glucose, serum and glutamine. A solution containing trans-resveratrol and/or betaine is added to the culture medium:
The primary fibroblast cultures are incubated for 120 min with resveratrol at a final concentration of 1 μM, betaine at a concentration of 1 mM or a mixture of the two.
The cell viability is measured after incubation by fluorescence. The intracellular ATP concentration is measured by a chemiluminescence-based assay; the mean of 4 measurements is taken.
The intracellular ATP concentrations are expressed in μM of ATP per viable cell and percent of ATP increase is calculated with respect to the ATP level in untreated cells.

Col1A1 = Col1A1 gene expression in cutaneous fibroblasts (quantitative real-time PCR); settings: 24 h, resveratrol 4 μM, betaine 5 mM or both; for Relative expression of Col1A1 Mean value: relative to untreated (ΔΔCt); for Relative expression of Col1A1 Increase (%): vs untreated
Description: Cutaneous fibroblasts were cultured for 24 h with resveratrol, betaine or mixtures of the two compounds.
For the gene expression analysis, the total RNAs were extracted from the fibroblast cultures and the expression measured by quantitative real-time PCR. RNA extraction was carried out using an RNeasy Mini Kit (Qiagen). The total RNAs were used for the cDNA synthesis using the iScript cDNA synthesis Kit (Biorad). The PCR reactions were conducted using the mix LightCycler® 480 SYBR Green I Master (Roche). To compare the relative expressions, the Δ ΔCt method was used. The relative expression of the gene of interest is represented by the expression variation compared with the untreated samples.

[3] = in presence of FK866 2.5 nM, 24 h, betaine 5 mM, resveratrol 25 μM or both
[4] = 24 h, betaine 5 mM, resveratrol 25 μM or both

Row | Compound | Effect of treatment against FK866 on mitochondrial mass (in words) (human fibroblasts [1]) | Mitochondrial mass (fluorescence units) Mean (human fibroblasts [1]; [3]) | Mitochondrial mass Increase (%) (human fibroblasts [1]; [4]) | ATP (μM per cell) Mean value (human fibroblasts [2]) | ATP Increase (%) (human fibroblasts [2]) | Relative expression of Col1A1 Mean value (Col1A1) | Relative expression of Col1A1 Increase (%) (Col1A1) | Mitochondrial mass Decrease (%) (human fibroblasts [1]; FK866 2.5 nM alone vs basal, 24 h) | Mitochondrial mass (fluorescence units) Mean (human fibroblasts [1]; FK866 2.5 nM alone, 24 h treatment) | Effect of FK866 on mitochondrial mass of fibroblasts (in words) (human fibroblasts [1]; FK866 alone)
1 | C[N+](C)(C)CC(=O)[O-] [Betaine, trimethylglycine] | protects against the effects of FK866 | 1574 fluorescence units | 19% | 0.080 μM per cell | 20% | 1.28 | 28% | – | – | –
2 | O=C(/C=C/c1cccnc1)NCCCCC1CCN(C(=O)c2ccccc2)CC1 [FK866, reference compound] | – | – | – | – | – | – | – | 10% | 1326 fluorescence units | decreases the mitochondrial mass
3 | Oc1ccc(C=Cc2cc(O)cc(O)c2)cc1 [Resveratrol, 3,5,4′-trihydroxystilbene] | protects against the effects of FK866 | 2285 fluorescence units | 72% | 0.086 μM per cell | 28% | 1.22 | 22% | – | – | –
